According to the supplement of paper PMC11368000:

Tests used:
Conditions in all cases: exposure time: 90 min
11235 [1] = donor line of iPSC-derived cardiomyocytes; experiment: POD (EC10) for decrease in total cell number (cytotoxicity) vs vehicle; higher = less potent (higher point of departure)
Experimental: (§1)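 Human iPSC-derived cardiomyocytes from 16 donors were exposed for 90 min at 37 °C to each PFAS at 0.1, 1, 10 and 100 µM in 0.5% DMSO, 384-well plates. Kinetic Ca2+ flux (FLIPR) and Hoechst nuclei counts were normalised to vehicle wells and fitted with a hierarchical Bayesian Hill model to give donor-specific PODs: EC05 for beat-rate increase or decrease and for decay-to-rise ratio increase (QT proxy), EC95 for peak-frequency loss (asystole), EC10 for total cell number loss. 0.03 µM is the lower bound.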

1368 [2] = donor line of iPSC-derived cardiomyocytes; experiment: as above
Experimental: as §1

1535 [3] = donor line of iPSC-derived cardiomyocytes; experiment: as above
Experimental: as §1

20084 [4] = donor line of iPSC-derived cardiomyocytes; experiment: as above
Experimental: as §1

1083 = donor line of iPSC-derived cardiomyocytes; experiment: POD (EC05) for decrease in beat frequency (negative chronotrope) vs vehicle; higher = less potent (higher point of departure)
Experimental: as §1

1118 = donor line of iPSC-derived cardiomyocytes; experiment: as above
Experimental: as §1

11235 [5] = experiment: as above
Experimental: as §1

1309 = donor line of iPSC-derived cardiomyocytes; experiment: as above
Experimental: as §1

1368 [6] = experiment: as above
Experimental: as §1

1392 = donor line of iPSC-derived cardiomyocytes; experiment: as above
Experimental: as §1

1434 = donor line of iPSC-derived cardiomyocytes; experiment: as above
Experimental: as §1

1516 = donor line of iPSC-derived cardiomyocytes; experiment: as above
Experimental: as §1

1518 = donor line of iPSC-derived cardiomyocytes; experiment: as above
Experimental: as §1

1531 = donor line of iPSC-derived cardiomyocytes; experiment: as above
Experimental: as §1

1535 [7] = experiment: as above
Experimental: as §1

1565 = donor line of iPSC-derived cardiomyocytes; experiment: as above
Experimental: as §1

20032 = donor line of iPSC-derived cardiomyocytes; experiment: as above
Experimental: as §1

20084 [8] = experiment: as above
Experimental: as §1

30145 = donor line of iPSC-derived cardiomyocytes; experiment: as above
Experimental: as §1

30171 = donor line of iPSC-derived cardiomyocytes; experiment: as above
Experimental: as §1

| Compound | POD vs vehicle 11235 [1] [µM] | POD vs vehicle 1368 [2] [µM] | POD vs vehicle 1535 [3] [µM] | POD vs vehicle 20084 [4] [µM] | POD vs vehicle 1083 [µM] | POD vs vehicle 1118 [µM] | POD vs vehicle 11235 [5] [µM] | POD vs vehicle 1309 [µM] | POD vs vehicle 1368 [6] [µM] | POD vs vehicle 1392 [µM] | POD vs vehicle 1434 [µM] | POD vs vehicle 1516 [µM] | POD vs vehicle 1518 [µM] | POD vs vehicle 1531 [µM] | POD vs vehicle 1535 [7] [µM] | POD vs vehicle 1565 [µM] | POD vs vehicle 20032 [µM] | POD vs vehicle 20084 [8] [µM] | POD vs vehicle 30145 [µM] | POD vs vehicle 30171 [µM] |
| --- | --- | --- | --- | --- | --- | --- | --- | --- | --- | --- | --- | --- | --- | --- | --- | --- | --- | --- | --- | --- |
| NC(=O)C(F)(F)C(F)(F)C(F)(F)C(F)F | > 100 | > 100 | > 100 | > 100 | > 100 | > 100 | > 100 | > 100 | > 100 | > 100 | > 100 | > 100 | > 100 | > 100 | > 100 | > 100 | > 100 | > 100 | > 100 | > 100 |
| OCC(O)CC(F)(F)C(F)(F)C(F)(F)C(F)(F)C(F)(F)C(F)(F)C(F)(F)C(F)(F)F (stereo not drawn) [1-(Perfluorofluorooctyl)propane-2,3-diol] | > 100 | > 100 | > 100 | > 100 | 24.4 | 0.258 | > 100 | > 100 | > 100 | > 100 | > 100 | > 100 | > 100 | > 100 | > 100 | > 100 | > 100 | > 100 | > 100 | > 100 |
| CC(O)C(F)(F)C(F)(F)F (stereo not drawn) [1-Pentafluoroethylethanol] | > 100 | > 100 | > 100 | > 100 | > 100 | > 100 | > 100 | > 100 | > 100 | > 100 | > 100 | > 100 | > 100 | > 100 | > 100 | > 100 | > 100 | > 100 | > 100 | > 100 |
| OCC(F)(F)C(F)(F)C(F)(F)C(F)F [1H,1H,5H-Perfluoropentanol] | > 100 | > 100 | > 100 | > 100 | > 100 | 22.8 | > 100 | > 100 | > 100 | > 100 | > 100 | > 100 | > 100 | 45.9 | > 100 | > 100 | > 100 | 35.1 | > 100 | > 100 |
| O=S(=O)(OCC(F)(F)F)C(F)(F)C(F)(F)C(F)(F)C(F)(F)F [2,2,2-Trifluoroethyl_perfluorobutanesulfonate] | > 100 | > 100 | > 100 | > 100 | > 100 | > 100 | > 100 | > 100 | > 100 | > 100 | > 100 | > 100 | > 100 | > 100 | > 100 | > 100 | > 100 | > 100 | > 100 | 49.1 |
| O=C(O)C(F)(F)C(F)(F)C(F)F [2,2,3,3,4,4-Hexafluorobutanoic_acid] | > 100 | > 100 | > 100 | > 100 | > 100 | > 100 | > 100 | > 100 | > 100 | > 100 | > 100 | > 100 | > 100 | > 100 | > 100 | > 100 | > 100 | > 100 | > 100 | > 100 |
| NC(O)(C(F)(F)F)C(F)(F)F [2-Aminohexafluoropropan-2-ol] | > 100 | > 100 | > 100 | > 100 | > 100 | 16.9 | 7.51 | > 100 | > 100 | > 100 | 85.7 | 22.6 | > 100 | > 100 | 83.8 | > 100 | 80.9 | > 100 | > 100 | 36.5 |
| O=C(O)CCC(F)(F)C(F)(F)C(F)(F)C(F)(F)C(F)(F)F [2H,2H,3H,3H-Perfluorooctanoic_acid] | > 100 | > 100 | > 100 | > 100 | 39.6 | 20 | 16.9 | 37.7 | > 100 | 20.4 | 23.8 | 21.1 | > 100 | 24.9 | 75.1 | > 100 | 29.8 | 20 | 22.2 | 21.8 |
| CN(CCO)S(=O)(=O)C(F)(F)C(F)(F)C(F)(F)C(F)(F)C(F)(F)C(F)(F)C(F)(F)C(F)(F)F [N-Methyl-N-(2-hydroxyethyl)perfluorooctanesulfonamide] | > 100 | > 100 | > 100 | > 100 | 16.9 | – | 35.4 | > 100 | > 100 | > 100 | 42.2 | > 100 | > 100 | > 100 | > 100 | > 100 | > 100 | > 100 | > 100 | 20.2 |
| O=C(O)C(F)(F)C(F)(F)C(F)(F)C(F)(F)C(F)(F)C(F)(F)C(F)(F)C(F)(F)C(F)(F)C(F)(F)F [Perfluoroundecanoic_acid] | > 100 | > 100 | > 100 | > 100 | > 100 | > 100 | 0.395 | > 100 | > 100 | > 100 | > 100 | – | 1.19 | > 100 | > 100 | > 100 | > 100 | > 100 | > 100 | 0.96 |
